{"source": "patent EP1306084A1", "about": "“Compositions for the control of parasitic infestations in fish” (Alpharma AS, priority 1998, dated 1999)", "key": {"sea lice [1]": {"test_system": "sea lice", "test": "Oral hexaflumuron treatment of naturally sea lice infected salmon in sea cages (Example 1)", "format": "in vivo, Atlantic salmon (Salmo salar)", "conditions": "9 mg per kg each day for 10 days", "method": "The treatment dosage was 9 mg hexaflumuron per kg fish per day for 10 days. This is indicated by \"Groups/Timepoints\" in the figure; • Figure 2 relates to the trial in Example 2 that was carried out on Atlantic salmon (Salmo salar). […] The treatment dosage varied between 3 - 9 mg hexaflumuron and 9- 12 mg fluazuron per kg fish per day for 7 days. This is indicated by \"Groups/Timepoints\" in the diagram. […] The treated groups are compared to an untreated control group. The treatment dosage was 4 mg hexaflumuron per kg fish per day for 5 days. This is indicated by \"Groups/Timepoints\" in the figure. Cage 2 = controls, Cage 4-6 = treated groups, 16.6.97 = time point for sea transfer and 5.8.97= controls treated by bathing with deltamethrin; • Figure 4 relates to the trial described in Example 5, which was carried out on sea trout (Salmo trutta). […] The treated groups are compared with an untreated control group. The dosage for oral treatment was 4 mg hexaflumuron per kilo fish per day for 5 days, and 5 ppm hexaflumuron as a 30 minute bath treatment. This is indicated by \"Groups/Timepoints\" in the figure. Cage 1.4 = Controls, cage 1.3 = Oral treatment, cage 1.2 = Bath treatment. […] The treated groups are compared with an untreated control group, and one group that has been treated orally with teflubenzuron (10 mg/kg of teflubenzuron per kg fish per day for 7 days). […]"}, "sea lice [2]": {"test_system": "sea lice", "test": "Field trial: medicated feed before sea transfer, recapture of tagged fish, sea lice infection (Example 3)", "format": "in vivo, wild sea trout (Salmo trutta)", "conditions": "about 3 mg per fish per day for six days in feed before sea transfer; 13 treated fish caught June 20 to August 7", "method": "About 2,000 wild sea trout (Salmo trutta) were divided into two groups and marked with Carlin tags in two different colours (yellow or red) so that individuals of the groups could easily be distinguished from each other when observed in the water. The group with yellow Carlin tags were given feed containing hexaflumuron. The dose was about 3 mg of hexaflumuron per fish per day for six days. The feeding was done the last week before they were transferred to the sea in the beginning of May. The control group had red Carlin tags and was fed ordinary fish feed until sea transfer. Both groups of fish were transferred to the sea 200 metres from the river mouth of the Bondhus River in Hordaland in Norway. From sea transfer (May 8) until August 7, neighbouring rivers and estuaries round these rivers were examined every week, using fishing by application of high voltage and net fishing.\nTagged fish was not caught until June 20. From June 20 to August 7, 22 control fish and 13 treated fish were caught. The untreated fish were caught in the lower parts of the rivers and were heavily infected with sea lice. The 13 treated fish were exclusively caught in the estuary around the rivers (in sea water), none were caught in freshwater."}, "[3]": {"test": "Chemical analysis of muscle/skin tissue after oral treatment (Example 6)", "format": "in vivo, Atlantic salmon (Salmo salar)", "conditions": "atlantic salmon, 5.6 mg/kg, five fish, read-out: average concentration of hexaflumuron in muscle/skin tissue", "method": "Two days after oral treatment had been completed and at timepoint 3 (65 days after completed medication), muscle/skin tissue from five fish in group 1 was chemically analysed to check the concentration of hexaflumuron. The average concentration of hexaflumuron two days after completed medication was 4.4 µg/g tissue. 65 days after, the average concentration level was 1.2 µg/g tissue."}, "[4]": {"test": "Specific growth rate after sea transfer (Example 4)", "format": "in vivo, salmon (Salmo salar)", "conditions": "treated groups, after about 12 weeks; control group 1.79%", "method": "About 2,500 salmon (Salmo salar) of average weight 42 grams were treated orally with a daily dosage of 4 mg hexaflumuron per kilo fish for 5 days. The treatment was carried out in freshwater one week before the fish were transferred to sea water. In the sea water, the fish was distributed into 3 different minicages with 800-850 fish in each. At the same time 1,000 untreated fish (from a different fish farm) weighing on average 50 grams were transferred to sea in a neighbouring cage. After being transferred to sea water, the fish were exposed to natural sea lice infection. The number of lice on 10 fish from each cage were counted every third week to check if there was any difference in the number of lice in the cages. When ending the trial, about 12 weeks after the fish had been transferred to sea, the fish in each cage were weighed to check possible differences in growth (SGR, specific growth rate). The water temperature varied between 10-16°C during the trial. […] From 9 weeks on, there was no difference between the groups. The dosage rate that was used in this trial, i.e. 4 mg of hexaflumuron per kg fish per day, is very low. By increasing the dosage the protection time would probably be extended. […] The SRG was measured after about 12 weeks and it was estimated at 1.79% in the control group, and 1.95 - 2.00% in the treated groups."}}}
{"smiles": "O=C(NC(=O)c1c(F)cccc1F)Nc1cc(Cl)c(OC(F)(F)C(F)F)c(Cl)c1", "note": "[hexaflumuron]", "values": [{"measurement": "reduction of sensitive chalimus and pre-adult stages", "setting": "sea lice [1]", "result": "about 95%"}, {"measurement": "reduced the number of lice as compared to the control group", "setting": "sea lice [1]; medicated pellets, 7.6 - 9.4°C", "result": "more than 90%"}, {"measurement": "signs of sea lice infections in recaptured fish", "setting": "sea lice [2]", "result": "None of the treated fish showed signs of sea lice infections"}, {"measurement": "concentration at 1560 h", "setting": "[3]; 65 days after completed oral medication", "result": 1200, "unit": "ng/g"}, {"measurement": "concentration at 48 h", "setting": "[3]; two days after completed oral medication (5.6 mg per kg, 7 days)", "result": 4400, "unit": "ng/g"}, {"measurement": "SGR (specific growth rate)", "setting": "[4]", "result": "1.95 - 2.00%"}]}
